Source: PMC11992225, “Antibacterial compounds against non-growing and intracellular bacteria” (npj Antimicrobials and Resistance, 2025)
In brackets after ≈: the same amount, converted by molar mass. Like-named read-outs stand apart in the source and are kept apart here.

Legend:
P. aeruginosa DSM1117 = experiment: MIC, standard microdilution assay, growing P. aeruginosa; format: cell-based, Pseudomonas aeruginosa; conditions: Pseudomonas aeruginosa, DSM1117, pH 7.4, read-out: MIC (μM) CA-MHB
How it was run: (§1)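 Standard microdilution protocol, triplicate wells. For S. flexneri the growth medium is TSB. The other three strains are grown in HEPES-buffered (40 mM, pH 7.4) CA-MHB, and UPEC is also run at pH 5.5 in LPM containing 30 mM MES.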

S. aureus DSM2569 = experiment: MIC, standard microdilution assay, growing S. aureus; format: cell-based, Staphylococcus aureus; conditions: for MIC: Staphylococcus aureus
How it was run: as §1

non-growing UPEC CFT073 = experiment: Dilution-regrowth assay (screen, hit validation, dose-response) on stationary-phase UPEC; format: cell-based, Escherichia coli; conditions: for OD600 at 6hr, Mean: after dilution into drug-free medium; for EC50: Escherichia coli
How it was run: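 Regrowth (OD600 after 6 h, 37 °C) of diluted non-growing CFT073, following 24 h compound treatment of 24 h stationary cultures, defines activity relative to untreated control. Screen at 20 µM, validation at 20, 10, 5 µM (duplicates), dose–response in three biological replicates fitted by five-parameter logistic.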

E. coli CFT073 (UPEC) = experiment: MIC, standard microdilution assay, growing UPEC; format: cell-based, Escherichia coli; conditions: for MIC (μM) CA-MHB +PAβN: E. coli, pH 7.4, CA-MHB with 10 μg/ml efflux pump inhibitor PaβN; for MIC: Escherichia coli
How it was run: as §1

S. flexneri 5a M90T = experiment: MIC in tryptic soy broth, S. flexneri; format: cell-based, Shigella flexneri; conditions: Shigella flexneri, 5AM90T, read-out: MIC (μM) TSB
How it was run: as §1

[1] = DSM2569, pH 7.4, read-out: MIC (μM) CA-MHB
[2] = E. coli in 1:4 CA-MHB (pH 7.4), 0.25 μM
[3] = E. coli in 1:4 CA-MHB (pH 7.4), 0.5 μM
[4] = E. coli in 1:4 CA-MHB (pH 7.4), 1 μM
[5] = E. coli in 1:4 CA-MHB (pH 7.4), 2.5 μM
[6] = E. coli in 1:4 CA-MHB (pH 7.4), 5 μM
[7] = E. coli in 1:4 CA-MHB (pH 7.4), 10 μM
[8] = E. coli in 1:4 CA-MHB (pH 7.4), 30 μM
[9] = E. coli in LPM (pH 5.5), 0.25 μM
[10] = E. coli in LPM (pH 5.5), 0.5 μM
[11] = E. coli in LPM (pH 5.5), 2.5 μM
[12] = pH 5.5, read-out: EC50 (regrowth inhibition curve, Fig. S4)
[13] = pH 7.4, read-out: MIC (μM) 1:4 CA-MHB
[14] = pH 7.4, read-out: MIC (μM) CA-MHB

SMILES	MIC (P. aeruginosa DSM1117)	MIC (S. aureus DSM2569; [1])	OD600 at 6hr, Mean (non-growing UPEC CFT073; [2])	OD600 at 6hr, Mean (non-growing UPEC CFT073; [3])	OD600 at 6hr, Mean (non-growing UPEC CFT073; [4])	OD600 at 6hr, Mean (non-growing UPEC CFT073; [5])	OD600 at 6hr, Mean (non-growing UPEC CFT073; [6])	OD600 at 6hr, Mean (non-growing UPEC CFT073; [7])	OD600 at 6hr, Mean (non-growing UPEC CFT073; [8])	OD600 at 6hr, Mean (non-growing UPEC CFT073; [9])	OD600 at 6hr, Mean (non-growing UPEC CFT073; [10])	OD600 at 6hr, Mean (non-growing UPEC CFT073; E. coli in LPM (pH 5.5), 1 μM)	OD600 at 6hr, Mean (non-growing UPEC CFT073; [11])	OD600 at 6hr, Mean (non-growing UPEC CFT073; E. coli in LPM (pH 5.5), 5 μM)	OD600 at 6hr, Mean (non-growing UPEC CFT073; E. coli in LPM (pH 5.5), 10 μM)	OD600 at 6hr, Mean (non-growing UPEC CFT073; E. coli in LPM (pH 5.5), 30 μM)	EC50 (non-growing UPEC CFT073; pH 5.5)	EC50 (non-growing UPEC CFT073; [12])	EC50 (non-growing UPEC CFT073; pH 7.4)	MIC (μM) CA-MHB +PAβN (E. coli CFT073 (UPEC))	also measured
CS[C@H]1SC[C@H]2C(=O)N(C)[C@@H](C(C)C)C(=O)OC[C@@H](NC(=O)c3cnc4ccccc4n3)C(=O)N[C@@H](C)C(=O)N(C)[C@@H]1C(=O)N(C)[C@@H](C(C)C)C(=O)OC[C@@H](NC(=O)c1cnc3ccccc3n1)C(=O)N[C@@H](C)C(=O)N2C [Echinomycin]	> 80 µM	2 µM (≈ 2.2 µg/mL)	0.627	0.601	0.561	0.340	0.110	0.090	0.091	0.602	0.564	0.465	0.288	0.215	0.181	0.160	1530 nM	1520 nM	2400 nM	40 µM (≈ 44.1 µg/mL)	EC50 (non-growing UPEC CFT073; pH 7.4, read-out: EC50 (regrowth inhibition curve, Fig. S4)): 2390 nM; MIC (E. coli CFT073 (UPEC); pH 5.5): 4 µM (≈ 4.41 µg/mL); MIC (E. coli CFT073 (UPEC); [13]): 40 µM (≈ 44.1 µg/mL); MIC (E. coli CFT073 (UPEC); [14]): 20 µM (≈ 22 µg/mL); MIC (S. flexneri 5a M90T): 4 µM (≈ 4.41 µg/mL)
Cn1c(COP(=O)(NCCBr)NCCBr)cnc1[N+](=O)[O-] [Evofosfamide]	> 160 µM	160 µM (≈ 71.8 µg/mL)	0.603	0.596	0.573	0.563	0.534	0.521	0.480	0.553	0.543	0.392	0.282	0.193	0.124	0.114	1540 nM	1540 nM	11600 nM	>160 µM	MIC (μM) CA-MHB +PAβN (S. aureus DSM2569; S. aureus, CA-MHB with 10 μg/ml PaβN): 80 µM (≈ 35.9 µg/mL); MIC (S. aureus DSM2569; DSM2569, pH 7.4, read-out: MIC (μM) 1:4 CA-MHB): 80 µM (≈ 35.9 µg/mL); activity against non-growing UPEC in LPM (pH 5.5) compared to 1:4 CA-MHB (pH 7.4) (non-growing UPEC CFT073; regrowth delay and killing, Figs. 2 and 3): potentiated by the low pH; MIC (E. coli CFT073 (UPEC); pH 5.5): 160 µM (≈ 71.8 µg/mL); MIC (E. coli CFT073 (UPEC); [13]): > 160 µM; MIC (E. coli CFT073 (UPEC); [14]): > 160 µM; MIC (S. flexneri 5a M90T): 32 µM (≈ 14.4 µg/mL)
